Data published in US20240025906A1 (NEURON23, INC., priority 2022, published 2024).
Where a name gives a salt, the structure may show the parent alone. Read-outs that look alike come from different tables or passages of the source.

Experiments:
[1] = system: JAK1/TYK2 pSTAT5 (Tyr694/699) in THP-1 cell line; test: IFNa-stimulated JAK1/TYK2 pSTAT5 (Tyr694/699) inhibition cellular assay, AlphaLISA; type: cell-based; settings: Homo sapiens, THP-1 cells, AlphaLISA (Assay B)
Method in brief: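 THP-1 cells (2e4/well in HBSS) were preincubated with compound (8 points, 6-fold steps from 10000 nM final) for 1 h at 37 °C, then stimulated with IFNa (added at 100 ng/mL) for 30 min. Lysate pSTAT5 was read by AlphaLISA at 615 nm. IC50 came from a 4-parameter fit with bottom 0 and Hill −1.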

TYK2 JH2 = biological target: T1, TYK2 JH2 (Homo sapiens, UniProt P29597); test: TYK2 JH2 binding assay (KINOMEscan KdELECT competitive binding); settings: TYK2 JH2 domain
T1 construct: purchased DiscoverX (KINOMEscan KdELECT service); host or cells: E. coli BL21-derived (T7 phage display) or HEK-293
Method in brief: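 Kd values come from qPCR measurement of kinase retained on an immobilized-ligand resin after 1 h room-temperature competition with compound in an 11-point, 3-fold series.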

[2] = IFNa-stimulated, read-out: Cellular_THP1_IFNa-pSTATS_TYK2
[3] = DiscoverX KINOMEscan KdELECT (Assay A), read-out: Biochemical TYK2_DiscoverX_JH2_BND_Kd
[4] = KINOMEscan KdELECT (Assay A), read-out: Biochemical TYK2_DiscoverX_JH2_BND_Kd
[5] = IFNa-stimulated pSTAT5 (Tyr694/699), read-out: Cellular_THP1_IFNa-pSTATS_TYK2
[6] = IFNa-stimulated, read-out: Cellular THP1_IFNa-pSTATS_IC50
[7] = KINOMEscan KdELECT (Assay A), read-out: Biochemical TYK2_JH2_Kd

T1 sequence (P29597 589-875 limits assumed): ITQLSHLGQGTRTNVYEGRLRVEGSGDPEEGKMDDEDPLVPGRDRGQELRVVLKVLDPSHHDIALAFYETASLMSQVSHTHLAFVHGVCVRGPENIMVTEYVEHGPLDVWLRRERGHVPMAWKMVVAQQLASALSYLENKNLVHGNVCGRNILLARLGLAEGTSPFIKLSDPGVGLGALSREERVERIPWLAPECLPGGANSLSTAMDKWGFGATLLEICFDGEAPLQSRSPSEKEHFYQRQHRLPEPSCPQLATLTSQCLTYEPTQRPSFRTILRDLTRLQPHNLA

Row | SMILES | IC50 [1, 2] [µM] | Kd (TYK2 JH2; [3]) [µM] | Kd (TYK2 JH2; [4]) [µM] | also measured
1 | COc1ccc2oc(-c3cnc(NC4CC4)c4cnc(NC(=O)C5CC5)cc34)nc2c1 [Example 367, N-(8-(cyclopropylamino)-5-(5-methoxybenzo[d]oxazol-2-yl)-2,7-naphthyridin-3-yl)cyclopropanecarboxamide] | ≤ 0.5 | ≤ 0.1 | – | –
2 | CNc1ncc(C#Cc2ccn3cnnc3c2)c2cc(NC(=O)C3CC3)ncc12 [Example 607, N-(5-([1,2,4]triazolo[4,3-a]pyridin-7-ylethynyl)-8-(methylamino)-2,7-naphthyridin-3-yl)cyclopropanecarboxamide] | ≤ 0.5 | – | ≤ 0.1 | –
3 | CNc1ncc(-c2nc3ccc(N4CCOC(C(C)(C)O)C4)cn3n2)c2cc(NC(=O)C3CC3)ncc12 (stereo not shown) [Example 1026] | – | – | ≤ 0.1 | IC50 [1, 5]: ≤ 0.5 µM
4 | CNc1ncc(-c2nc3ccc(N4CCO[C@H](C)C4)cn3n2)c2cc(NC(=O)C3CC3)ncc12 [Example 477, (R)-N-(8-(methylamino)-5-(6-(2-methylmorpholino)-[1,2,4]triazolo[1,5-a]pyridin-2-yl)-2,7-naphthyridin-3-yl)cyclopropanecarboxamide] | ≤ 0.5 | ≤ 0.1 | – | –
5 | CNc1ncc(-c2nc3cc(OC)ccc3o2)c2cc(NC(=O)[C@@H]3C[C@@H]3C(F)F)ncc12 (single isomer, unassigned) [Example 394] | ≤ 0.5 | ≤ 0.1 | – | –
6 | CNc1ncc(-c2nc3cc(O[C@H]4C[C@H](C#N)C4)ccc3o2)c2cc(NC(=O)C3CC3)ncc12 [Example 233, N-(5-(5-((1r,3r)-3-cyanocyclobutoxy)benzo[d]oxazol-2-yl)-8-(methylamino)-2,7-naphthyridin-3-yl)cyclopropanecarboxamide] | ≤ 0.5 | ≤ 0.1 | – | –
7 | CNc1ncc(-c2nc3cc(C(=O)NC4CC4)ccc3o2)c2cc(NC(=O)C3CC3)ncc12 [Example 1099, 2-(6-(cyclopropanecarboxamido)-1-(methylamino)-2,7-naphthyridin-4-yl)-N-cyclopropylbenzo[d]oxazole-5-carboxamide] | – | – | ≤ 0.1 | IC50 [1, 5]: ≤ 0.5 µM
8 | CCOc1ccc2oc(-c3cnc(NC)c4cnc(NC(=O)C5CC5)cc34)nc2c1 [Example 246, N-(5-(5-ethoxybenzo[d]oxazol-2-yl)-8-(methylamino)-2,7-naphthyridin-3-yl)cyclopropanecarboxamide] | ≤ 0.5 | ≤ 0.1 | – | –
9 | CNc1ncc(-c2cn3cc(N4CCO[C@H](C)C4)ccc3n2)c2cc(NC(=O)C3CC3)ncc12 [Example 1051] | – | – | ≤ 0.1 | IC50 [1, 5]: ≤ 0.5 µM
10 | CNc1ncc(C#Cc2ccc3c(c2)OCO3)c2cc(NC(=O)C3CC3)ncc12 [Example 997, N-[5-[2-(1,3-benzodioxol-5-yl)ethynyl]-8-(methylamino)-2,7-naphthyridin-3-yl]cyclopropanecarboxamide] | – | – | ≤ 0.1 | IC50 [1, 5]: ≤ 0.5 µM
11 | CNc1ncc(-c2cn3cc(N4CCOCC4)ccc3n2)c2cc(NC(=O)C3CC3)ncc12 [Example 880, N-(8-(methylamino)-5-(6-morpholinoimidazo[1,2-a]pyridin-2-yl)-2,7-naphthyridin-3-yl)cyclopropanecarboxamide] | ≤ 0.5 | – | ≤ 0.1 | –
12 | CNc1ncc(-c2nc3cc(N4CCC(F)CC4)ccc3o2)c2cc(NC(=O)C3CC3)ncc12 [Example 916, N-[5-[5-(4-fluoro-1-piperidyl)-1,3-benzoxazol-2-yl]-8-(methylamino)-2,7-naphthyridin-3-yl]cyclopropanecarboxamide] | ≤ 0.5 | – | ≤ 0.1 | –
13 | CNc1ncc(-c2nc3cccc(CC#N)c3o2)c2cc(NC(=O)C3CC3)ncc12 [Example 266, N-(5-(7-(cyanomethyl)benzo[d]oxazol-2-yl)-8-(methylamino)-2,7-naphthyridin-3-yl)cyclopropanecarboxamide] | ≤ 0.5 | ≤ 0.1 | – | –
14 | CNc1ncc(-c2nc3ccc(N4CCOC(C(C)(C)F)C4)cn3n2)c2cc(NC(=O)C3CC3)ncc12 (stereo not shown) [Example 1048] | – | – | ≤ 0.1 | IC50 [1, 5]: ≤ 0.5 µM
15 | CNc1ncc(-c2ccc(C(=O)N(C)C)cc2)c2cc(NC(=O)C3CC3)ncc12 [Example 170, 4-(6-(cyclopropanecarboxamido)-1-(methylamino)-2,7-naphthyridin-4-yl)-N,N-dimethylbenzamide] | – | – | – | IC50 [1, 6]: ≤ 0.5 µM; Kd (TYK2 JH2; [7]): ≤ 0.1 µM
16 | CCc1cnc(NC)c2cnc(NC(=O)C3CC3)cc12 [Example 72, N-(5-ethyl-8-(methylamino)-2,7-naphthyridin-3-yl)cyclopropanecarboxamide] | – | – | – | IC50 [1, 6]: > 0.5 µM; Kd (TYK2 JH2; [7]): ≤ 0.1 µM

Row | SMILES | IC50 [1, 2] [µM] | Kd (TYK2 JH2; [3]) [µM] | Kd (TYK2 JH2; [4]) [µM] | also measured
17 | C=C(c1ccc(N2CCO[C@@H](C)C2)cc1)c1cnc(NC)c2cnc(NC(=O)C3CC3)cc12 [Example 788, (S)—N-(8-(methylamino)-5-(1-(4-(2-methylmorpholino)phenyl)vinyl)-2,7-naphthyridin-3-yl)cyclopropanecarboxamide] | > 0.5 | – | 0.1 to 1 | –
18 | CNc1ncc(C#Cc2cc(F)c(OC)cn2)c2cc(NC(=O)C3CC3)ncc12 [Example 718, N-(5-((4-fluoro-5-methoxypyridin-2-yl)ethynyl)-8-(methylamino)-2,7-naphthyridin-3-yl)cyclopropanecarboxamide] | ≤ 0.5 | – | ≤ 0.1 | –
19 | CNc1ncc(-c2nc3cc(OC)ccc3o2)c2cc(NC(=O)[C@H]3C[C@H]3C(F)(F)F)ncc12 (single isomer, unassigned) [Example 398] | > 0.5 | ≤ 0.1 | – | –
20 | CNc1ncc(-c2cn3cc(C)cc(F)c3n2)c2cc(NC(=O)C3CC3)ncc12 [Example 1055] | – | – | ≤ 0.1 | IC50 [1, 5]: ≤ 0.5 µM
21 | [2H]C([2H])([2H])Nc1ncc(/C=C/c2ccc(OCCC#N)cc2)c2cc(NC(=O)[C@H]3C[C@H]3C)ncc12 [Example 799, (1S,2R)—N-(5-((E)-4-(2-cyanoethoxy)styryl)-8-((methyl-d3)amino)-2,7-naphthyridin-3-yl)-2-methylcyclopropane-1-carboxamide] | ≤ 0.5 | – | ≤ 0.1 | –
22 | CNc1ncc(-c2ccnn2C)c2cc(NC(=O)C3CC3)ncc12 [Example 6, N-(5-(1-methyl-1H-pyrazol-5-yl)-8-(methylamino)-2,7-naphthyridin-3-yl)cyclopropanecarboxamide] | – | – | – | IC50 [1, 6]: > 0.5 µM; Kd (TYK2 JH2; [7]): ≤ 0.1 µM
23 | CNc1ncc(-c2ccc(OCCOC)cc2)c2cc(NC(=O)C3CC3)ncc12 [Example 859, N-(5-(4-(2-methoxyethoxy)phenyl)-8-(methylamino)-2,7-naphthyridin-3-yl)cyclopropanecarboxamide] | ≤ 0.5 | – | ≤ 0.1 | –
24 | CNc1ncc(-c2nc3cc(N4CC(N(C)C)C4)ccc3o2)c2cc(NC(=O)C3CC3)ncc12 [Example 287, N-(5-(5-(3-(dimethylamino)azetidin-1-yl)benzo[d]oxazol-2-y1)-8-(methylamino)-2,7-naphthyridin-3-yl)cyclopropanecarboxamide] | ≤ 0.5 | ≤ 0.1 | – | –
25 | CNc1ncc(-c2nc3cc(F)ccc3o2)c2cc(NC(=O)C3CC3)ncc12 [Example 181, N-(5-(5-fluorobenzo[d]oxazol-2-yl)-8-(methylamino)-2,7-naphthyridin-3-yl)cyclopropanecarboxamide] | – | – | – | IC50 [1, 6]: ≤ 0.5 µM; Kd (TYK2 JH2; [7]): ≤ 0.1 µM
26 | CNc1ncc(C#Cc2ccc(S(=O)(=O)NC)cc2)c2cc(NC(=O)C3CC3)ncc12 [Example 673, N-(8-(methylamino)-5-((4-(N-methylsulfamoyl)phenyl)ethynyl)-2,7-naphthyridin-3-yl)cyclopropanecarboxamide] | ≤ 0.5 | – | ≤ 0.1 | –
27 | C=C1COCCN(c2ccc3oc(-c4cnc(NC)c5cnc(NC(=O)C6CC6)cc45)nc3c2)C1 [Example 334, N-(8-(methylamino)-5-(5-(6-methylene-1,4-oxazepan-4-yl)benzo[d]oxazol-2-yl)-2,7-naphthyridin-3-yl)cyclopropanecarboxamide] | ≤ 0.5 | ≤ 0.1 | – | –
28 | CNc1ncc(-n2cccn2)c2cc(NC(=O)C3CC3)ncc12 [Example 57, N-(8-(methylamino)-5-(1H-pyrazol-1-yl)-2,7-naphthyridin-3-yl)cyclopropanecarboxamide] | – | – | – | IC50 [1, 6]: > 0.5 µM; Kd (TYK2 JH2; [7]): ≤ 0.1 µM
29 | CNc1ncc(-c2nc3cc(OC)ccc3o2)c2cc(NC(=O)[C@@H]3C[C@@H]3C(F)(F)F)ncc12 (single isomer, unassigned) [Example 397] | ≤ 0.5 | ≤ 0.1 | – | –
30 | CNc1ncc(-c2nc3ccc(N4CCOCC4)cn3n2)c2cc(NC(=O)[C@H]3CC34CC4)ncc12 (single isomer, unassigned) [Example 588, formate] | ≤ 0.5 | ≤ 0.1 | – | –
31 | CNc1ncc(C#Cc2ccc(OC(C)C)cc2)c2cc(NC(=O)C3CC3)ncc12 [Example 634, N-(5-((4-isopropoxyphenyl)ethynyl)-8-(methylamino)-2,7-naphthyridin-3-yl)cyclopropanecarboxamide] | ≤ 0.5 | – | ≤ 0.1 | –
32 | CNc1ncc(C#Cc2ccc(COC)cc2)c2cc(NC(=O)C3CC3)ncc12 [Example 648, N-(5-((4-(methoxymethyl)phenyl)ethynyl)-8-(methylamino)-2,7-naphthyridin-3-yl)cyclopropanecarboxamide] | ≤ 0.5 | – | ≤ 0.1 | –
